For this assay, the target named is T1, Human M4 (Homo sapiens, UniProt P08173).
T1 construct: expressed in transfected cells; host or cells: CHO-K1 (ATCC), co-transfected with chimeric G protein Gqi5
T1 sequence (P08173 1-479): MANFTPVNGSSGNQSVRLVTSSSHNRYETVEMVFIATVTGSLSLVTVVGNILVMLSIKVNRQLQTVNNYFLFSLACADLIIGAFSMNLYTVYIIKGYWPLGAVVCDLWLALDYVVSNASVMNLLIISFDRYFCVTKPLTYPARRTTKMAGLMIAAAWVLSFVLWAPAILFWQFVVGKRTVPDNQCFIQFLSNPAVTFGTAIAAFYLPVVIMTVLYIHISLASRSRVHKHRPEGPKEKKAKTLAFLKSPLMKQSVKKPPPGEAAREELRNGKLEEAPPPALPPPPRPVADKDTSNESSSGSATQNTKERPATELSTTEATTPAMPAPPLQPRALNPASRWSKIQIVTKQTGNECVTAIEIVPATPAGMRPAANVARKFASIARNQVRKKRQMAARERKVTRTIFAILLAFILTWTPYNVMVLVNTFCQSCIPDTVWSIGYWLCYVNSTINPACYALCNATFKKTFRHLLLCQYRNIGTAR
The assay can be described thus: mAChR M4 cell-based functional assay (calcium flux, antagonism of EC80 acetylcholine response). To be noted: M4/Gqi5/CHO-K1 cells; for remaining activity at 30 µM: CHO-K1, % ACh maximum at 30 μM, read-out: Human M4 Emin; for IC50: decrease of response elicited by EC80 acetylcholine. As to the method: Human or rat M4 cDNA, along with the chimeric G protein Gqi5, were transfected into Chinese hamster ovary (CHO-K1) cells purchased from the American Type Culture Collection using Lipofectamine2000. M4/Gqi5/CHO cells were grown in Ham's F-12 medium containing 10% heat-inactivated fetal bovine serum (FBS), 20 mM HEPES, 500 μg/mL G418 sulfate, and 200 μg/mL Hygromycin B.
For high throughput measurement of agonist-evoked increases in intracellular calcium, CHO-K1 cells stably expressing muscarinic receptors were plated in growth medium lacking G418 and hygromycin at 15,000 cells/20 μL/well in Greiner 384-well black-walled, tissue culture (TC)-treated, clear-bottom plates (VWR). Cells were incubated overnight at 37° C. and 5% CO2. The next day, cells were washed using an ELX 405 (BioTek) with assay buffer; the final volume was then aspirated to 20 μL. Next, 20 μL of a 2.3 μM stock of Fluo-4/acetoxymethyl ester (Invitrogen, Carlsbad, Calif.), prepared as a 2.3 mM stock in DMSO and mixed in a 1:1 ratio with 10% (w/v) Pluronic F-127 and diluted in assay buffer, was added to the wells and the cell plates were incubated for 50 min at 37° C. and 5% CO2. Dye was removed by washing with the ELX 405 and the final volume was aspirated to 20 μL. Compound master plates were formatted in a 10 point concentration-response curve (CRC) format (1:3 dilutions) in 100% DMSO with a starting concentration of 10 or 1 mM using a BRAVO liquid handler (Agilent). Test compound CRCs were then transferred to daughter plates (240 nL) using the Echo acoustic plate reformatter (Labcyte, Sunnyvale, Calif.) and then diluted into assay buffer (40 μL) to a 2× stock using a Thermo Fisher Combi (Thermo Fisher Scientific, Waltham, Mass.).
Calcium flux was measured using the Functional Drug Screening System (FDSS) 6000 or 7000 (Hamamatsu Corporation, Tokyo, Japan) as an increase in the fluorescent static ratio. Compounds were applied to cells (20 μL, 2×) using the automated system of the FDSS at 2 seconds into the protocol and the data were collected at 1 Hz. At 143 s, 10 μL of an EC20 concentration of the muscarinic receptor agonist acetylcholine was added (5×), followed by the addition of 12 μL of an EC80 concentration of acetylcholine at the 268 s time point (5×). Agonist activity was analyzed as a concentration-dependent increase in calcium mobilization upon compound addition. Positive allosteric modulator activity was analyzed as a concentration-dependent increase in the EC20 acetylcholine response. Antagonist activity was analyzed as a concentration-dependent decrease in the EC80 acetylcholine response; for the purposes of the tables herein, an IC50 (inhibitory concentration 50) was calculated as a concentration-dependent decrease of the response elicited by an EC80 concentration of acetylcholine. Concentration-response curves were generated using a four-parameter logistical equation in XLFit curve fitting software (IDBS, Bridgewater, N.J.) for Excel (Microsoft, Redmond, Wash.) or Prism (GraphPad Software, Inc., San Diego, Calif.) or the Dotmatics software platform (Dotmatics, Bishop's Stortford, UK).
Compounds were synthesized as described above. Activity (IC50 and Emin) was determined in the mAChR M4 cell-based functional assay as described above and the data are shown in Table 2.
(In general: A change in cytosolic calcium serves as a functional read-out for many receptors and channels.)

Usually IC50 stands for the midpoint of a concentration-inhibition curve. Regarding `Cc1cc(N[C@H]2C[C@@H]3CN(CC4CCOCC4)C[C@@H]3C2)nnc1-c1ccc2nn(C)cc2c1` [compound 15, (3aR,5s,6aS)-N-(5-methyl-6-(2-methyl-2H-indazol-5-yl)pyridazin-3-yl)-2-((tetrahydro-2H-pyran-4-yl)methyl)octahydrocyclopenta[c]pyrrol-5-amine], the remaining activity at 30 µM stood at 3% and the concentration for half-maximal inhibition (IC50) turned out to be 1.1 nM.

For `Cc1cc(N[C@H]2C[C@@H]3CN(CC4CCOCC4)C[C@@H]3C2)nnc1-c1ccc2nn(C)cc2c1C` [compound 16, (3aR,5s,6aS)-N-(6-(2,4-dimethyl-2H-indazol-5-yl)-5-methylpyridazin-3-yl)-2-((tetrahydro-2H-pyran-4-yl)methyl)octahydrocyclopenta[c]pyrrol-5-amine], the remaining activity at 30 µM is 3% and the IC50 is 1.08 nM.

Consider `[2H]C([2H])(C1CCOCC1)N1C[C@H]2C[C@H](Nc3cc(C)c(-c4cc(F)ccc4F)nn3)C[C@H]2C1` [compound 17, (3aR,5s,6aS)-N-(6-(2,5-difluorophenyl)-5-methylpyridazin-3-yl)-2-((tetrahydro-2H-pyran-4-yl)methyl-d2)octahydrocyclopenta[c]pyrrol-5-amine], for which the remaining activity at 30 µM is 3% and the IC50 was found to be 0.58 nM.

Consider `[2H]C([2H])(C1CCOCC1)N1C[C@H]2C[C@H](Nc3cc(C)c(-c4cc(F)ccc4Cl)nn3)C[C@H]2C1` [compound 18, (3aR,5s,6aS)-N-(6-(2-chloro-5-fluorophenyl)-5-methylpyridazin-3-yl)-2-((tetrahydro-2H-pyran-4-yl)methyl-d2)octahydrocyclopenta[c]pyrrol-5-amine], for which the remaining activity at 30 µM worked out at 3% and the IC50 was 0.44 nM.

Take `[2H]C([2H])(C1CCOCC1)N1C[C@H]2C[C@H](Nc3cc(C)c(-c4ccc5nn(C)cc5c4)nn3)C[C@H]2C1` [compound 19, (3aR,5s,6aS)-N-(5-methyl-6-(2-methyl-2H-indazol-5-yl)pyridazin-3-yl)-2-((tetrahydro-2H-pyran-4-yl)methyl-d2)octahydrocyclopenta[c]pyrrol-5-amine]: the remaining activity at 30 µM was 4% and the IC50 amounted to 1.62 nM.

Consider `[2H]C([2H])(C1CCOCC1)N1C[C@H]2C[C@H](Nc3nnc(-c4cc(F)ccc4C)cc3C)C[C@H]2C1` [compound 20, (3aR,5s,6aS)-N-(6-(5-fluoro-2-methylphenyl)-4-methylpyridazin-3-yl)-2-((tetrahydro-2H-pyran-4-yl)methyl-d2)octahydrocyclopenta[c]pyrrol-5-amine], for which the remaining activity at 30 µM amounted to 3% and the IC50 is 0.54 nM.

On to `[2H]C([2H])(C1CCOCC1)N1C[C@H]2C[C@H](Nc3nnc(-c4cccc(F)c4)cc3C)C[C@H]2C1` [compound 21, (3aR,5s,6aS)-N-(6-(3-fluorophenyl)-4-methylpyridazin-3-yl)-2-((tetrahydro-2H-pyran-4-yl)methyl-d2)octahydrocyclopenta[c]pyrrol-5-amine], for which the remaining activity at 30 µM was determined as 3% and the IC50 is 1.22 nM.

As for `[2H]C([2H])(C1CCOCC1)N1C[C@H]2C[C@H](Nc3nnc(-c4ccc5nn(C)cc5c4)cc3C)C[C@H]2C1` [compound 22, (3aR,5s,6aS)-N-(4-methyl-6-(2-methyl-2H-indazol-5-yl)pyridazin-3-yl)-2-((tetrahydro-2H-pyran-4-yl)methyl-d2)octahydrocyclopenta[c]pyrrol-5-amine], the remaining activity at 30 µM was 4% and the IC50 was 1.82 nM.

For the molecule `[2H]C([2H])(C1CCOCC1)N1C[C@H]2C[C@H](Nc3nnc(-c4ccc5nn(C)cc5c4C)cc3C)C[C@H]2C1` [compound 23, (3aR,5s,6aS)-N-(6-(2,4-dimethyl-2H-indazol-5-yl)-4-methylpyridazin-3-yl)-2-((tetrahydro-2H-pyran-4-yl)methyl-d2)octahydrocyclopenta[c]pyrrol-5-amine], the remaining activity at 30 µM turned out to be 3% and the IC50 was determined as 0.59 nM.

(Values after patent US20230122344A1, “ANTAGONISTS OF THE MUSCARINIC ACETYLCHOLINE RECEPTOR M4” (Vanderbilt University, priority 2019, published 2023).)
